# In patent US4254128A, “2-Adamantyl hydrazines and biocidal compositions thereof” (Teva Pharmaceutical Industries Ltd., priority 1977, dated 1981):
# Structures can show the parent of a compound that is named as a salt. Where two headings read alike, the source gives them in different places.
# Key:
# L. tropica amastigotes = assay: Anti leishmania test, amastigotes in peritoneal exudate cells in vitro; assay type: cell-based; details: 37° C.
# Description: (§1) a. amastigotes in peritoneal exudate cells in Mc Coy's medium in vitro at 37° C.
# +++=clearance of all parasites in 24 hours
# ++=clearance of all parasites in 48 hours
# +=clearance of all parasites in 72 hours
# ±=Partial clearance of parasites in 72 hours or more
# -=No activity against parasites.
# L. tropica promastigotes = assay: Anti leishmania test, promastigotes in vitro; assay type: cell-based; details: 27° C.
# Description: (§2) b. promastigotes in Mc Coy's medium in vitro at 27° C.
# +++=No viable parasites after 24 hours
# ++=No viable parasites after 48 hours
# +=No viable parasites after 72 hours
# ±=No viable parasites after 96 hours p2 -=viable parasites after 120 hours.
# Leishmania = assay: Anti leishmania tests, summary; assay type: cell-based, L. tropica; details: summary in words
# Description: as §1, §2
# [1] = test system: Leptospira canicola Kipod 146; assay: Anti leptospiral activity (minimal inhibition concentration); assay type: cell-based; details: for MIC: Leptospira interrogans, KIPOD146, 240 h; for anti leptospiral activity: summary in words
# Description: The tests were carried out under the following conditions:
# Leptospira: Leptospira canicola Kipod 146
# Inoculum: 1-10^5 cells/ml
# Incubation time: 10 days, 28° C.
# Evaluation: Direct count in dark field microscopy after 4,7 and 10 days.
# 2 Minimal+0.5% albumin (Pentex)
# 3 Korthof rich medium with 8% serum.
# 4 Korthof rich medium with 2% serum.
# Trypanosoma = assay: Anti trypanosoma test in vitro; assay type: cell-based; details: for Trypanosoma in vitro activity score: 37° C., scoring as in b (promastigotes); for activity against Trypanosoma: summary in words
# Description: Trypanosoma in RPM1 medium in vitro at 37° C. Scoring as in b.
# albino rats = assay: Antiparkinson activity (catalepsy produced by haloperidol); assay type: in vivo, Male Charles River albino rats; details: 80 mg/kg i.p.
# Description: Male Charles River albino rats, weighing 200-250 g, were used. Catalepsy was produced by haloperidol, 5 mg/kg i.p. The animals were placed with their front paws on a horizontal bar, about 10 cm above the ground, and animals were considered cataleptic if not changing posture for at least 30 sec. Cataleptic animals were injected i.p. with one of the drugs at a dose of 40-80 mg/kg. Catalepsy was estimated again at the intervals indicated.
# albino mice [2] = assay: Stereotyped behaviour in mice; assay type: in vivo, Male ICR albino mice; set-up: stereotyped behaviour score / Total Score / Mean Score: scale not given here; details: 50 mg/kg i.p.
# Description: Male ICR albino mice weighing 25-30 g were put in cages with a metal grid floor, 4 in each cage. Drugs were injected intraperitoneally and stereotyped behaviour (sniffing, biting, repetitive head movement) was evaluated every 30 min.
# albino mice [3] = assay: Stereotyped behaviour in mice; assay type: in vivo, Male ICR albino mice; set-up: scale not given here; details: 50 mg/kg i.p.
# HSV-1 (Herpes Simplex) = assay: Inhibition test on HSV replication; assay type: cell-based
# Source text: BSC-1 (Green monkey kidney)
# **% Inhibition of control infected for some time with same virus PFV with […]
# [4] = Toxic limit in the HSV replication test; details: monkey, bsc-1 cells
# [5] = minimal + Pentex (0.5% albumin)
smiles,measurement,setting,value
"CNNC1C2CC3CC(C2)CC1C3 (centres unmarked) [Example 25, 1-(2'-Adamantyl)-2-methylhydrazine hydrochloride]",Leishmania amastigote activity score,L. tropica amastigotes; 100 μg,++ (clearance of all parasites in 48 hours)
same,Leishmania promastigote activity score,L. tropica promastigotes; 100 μg,+++ (No viable parasites after 24 hours)
same,activity against Leishmania,Leishmania,active
"FC(F)(F)c1cccc(NNC2C3CC4CC(C3)CC2C4)c1 (centres unmarked) [Example 6, 1-(2'-Adamantyl)-2-(m-trifluoromethylphenyl)hydrazine hydrochloride]",MIC,[1]; Korthof + 8% serum,50 µg/mL
same,MIC,[1]; minimal medium,12.5 µg/mL
same,anti leptospiral activity,[1],active
"C1CCCN(NC2C3CC4CC(C3)CC2C4)CC1 (centres unmarked) [Example 11, 1-(2'-Adamantylamino)homopiperidine hydrochloride]",Trypanosoma in vitro activity score,Trypanosoma; 10 μg,+ (No viable parasites after 72 hours)
same,Trypanosoma in vitro activity score,Trypanosoma; 100 μg,+++ (No viable parasites after 24 hours)
same,activity against Trypanosoma,Trypanosoma,active
"N=C(N)c1ccc(OCCCCCOc2ccc(C(=N)N)cc2)cc1 [Pentamidine, reference compound]",Leishmania promastigote activity score,L. tropica promastigotes; 10 μg,+++ (No viable parasites after 24 hours)
same,Leishmania promastigote activity score,L. tropica promastigotes; 100 μg,+++ (No viable parasites after 24 hours)
same,Trypanosoma in vitro activity score,Trypanosoma; 100 μg,++ (No viable parasites after 48 hours)
"NC12CC3CC(CC(C3)C1)C2 [Symmetrel, reference compound]",anticataleptic effect,albino rats; rat 1,0/4
same,anticataleptic effect,albino rats; rat 2,2/4
same,anticataleptic effect,albino rats; rat 3,3/4
same,anticataleptic effect,albino rats; rat 4,3/4
same,anticataleptic effect,albino rats; rat 5,3/4
same,stereotyped behaviour score,"albino mice [2]; 0 min, mouse 1",0
same,stereotyped behaviour score,"albino mice [2]; 0 min, mouse 2",0
same,stereotyped behaviour score,"albino mice [2]; 0 min, mouse 3",0
same,stereotyped behaviour score,"albino mice [2]; 0 min, mouse 4",0
same,stereotyped behaviour score,"albino mice [2]; 30 min, mouse 1",1
same,stereotyped behaviour score,"albino mice [2]; 30 min, mouse 2",1
same,stereotyped behaviour score,"albino mice [2]; 30 min, mouse 3",1
same,stereotyped behaviour score,"albino mice [2]; 30 min, mouse 4",1
same,stereotyped behaviour score,"albino mice [2]; 45 min, mouse 3",1
same,stereotyped behaviour score,"albino mice [2]; 45 min, mouse 4",1
same,stereotyped behaviour score,"albino mice [2]; 60 min, mouse 1",2
same,stereotyped behaviour score,"albino mice [2]; 60 min, mouse 2",2
same,stereotyped behaviour score,"albino mice [2]; 60 min, mouse 3",1
same,stereotyped behaviour score,"albino mice [2]; 60 min, mouse 4",1
same,stereotyped behaviour score,"albino mice [2]; 90 min, mouse 1",1
same,stereotyped behaviour score,"albino mice [2]; 90 min, mouse 2",1
same,stereotyped behaviour score,"albino mice [2]; 90 min, mouse 3",2
same,stereotyped behaviour score,"albino mice [2]; 90 min, mouse 4",1
same,stereotyped behaviour score,"albino mice [2]; 120 min, mouse 1",2
same,stereotyped behaviour score,"albino mice [2]; 120 min, mouse 2",2
same,stereotyped behaviour score,"albino mice [2]; 120 min, mouse 3",2
same,stereotyped behaviour score,"albino mice [2]; 120 min, mouse 4",2
same,stereotyped behaviour score,"albino mice [2]; 135 min, mouse 1",2
same,stereotyped behaviour score,"albino mice [2]; 135 min, mouse 2",2
same,stereotyped behaviour score,"albino mice [2]; 150 min, mouse 1",2
same,stereotyped behaviour score,"albino mice [2]; 150 min, mouse 2",2
same,stereotyped behaviour score,"albino mice [2]; 150 min, mouse 3",2
same,stereotyped behaviour score,"albino mice [2]; 150 min, mouse 4",2
same,stereotyped behaviour score,"albino mice [2]; 180 min, mouse 1",2
same,stereotyped behaviour score,"albino mice [2]; 180 min, mouse 2",2
same,stereotyped behaviour score,"albino mice [2]; 180 min, mouse 3",2
same,stereotyped behaviour score,"albino mice [2]; 180 min, mouse 4",2
same,stereotyped behaviour score,"albino mice [2]; 210 min, mouse 1",2
same,stereotyped behaviour score,"albino mice [2]; 210 min, mouse 2",2
same,stereotyped behaviour score,"albino mice [2]; 210 min, mouse 3",2
same,stereotyped behaviour score,"albino mice [2]; 210 min, mouse 4",1
same,stereotyped behaviour score,"albino mice [2]; 240 min, mouse 1",2
same,stereotyped behaviour score,"albino mice [2]; 240 min, mouse 2",2
same,stereotyped behaviour score,"albino mice [2]; 240 min, mouse 3",2
same,stereotyped behaviour score,"albino mice [2]; 240 min, mouse 4",0
same,Mean Score,albino mice [2]; mean of 4 mice,16
same,Total Score,albino mice [2]; mouse 1,17
same,Total Score,albino mice [2]; mouse 2,17
same,Total Score,albino mice [2]; mouse 3,17
same,Total Score,albino mice [2]; mouse 4,13
same,stereotyped behaviour score,"albino mice [3]; 45 min, mouse 1",1
same,stereotyped behaviour score,"albino mice [3]; 45 min, mouse 2",1
same,stereotyped behaviour score,"albino mice [3]; 135 min, mouse 3",2
same,stereotyped behaviour score,"albino mice [3]; 135 min, mouse 4",2
"CN(C)NC1C2CC3CC(C2)CC1C3 (centres unmarked) [Example 1, 1-(2'-Adamantyl)-2,2-dimethylhydrazine hydrochloride]",MIC,[1]; Korthof + 8% serum,12.5 µg/mL
same,MIC,[1]; [5],12.5 µg/mL
same,MIC,[1]; minimal medium,12.5 µg/mL
same,anti leptospiral activity,[1],active
"CN(CC(=O)O)NC1C2CC3CC(C2)CC1C3 (centres unmarked) [Example 37, [2-(2'-Adamantyl)-1-methylhydrazino]acetic acid hydrochloride]",MIC,[1]; Korthof + 2% serum,12.5 µg/mL
same,MIC,[1]; Korthof + 8% serum,12.5 to 25 µg/mL
same,MIC,[1]; [5],25 µg/mL
same,MIC,[1]; minimal medium,25 µg/mL
same,anti leptospiral activity,[1],active
"NC12CC3CC(CC(C3)C1)C2 [Amant., Amantadine, reference compound]",inhibition at 50 µg/mL,"HSV-1 (Herpes Simplex); Human alphaherpesvirus 1, BSC-1",93%
same,MNTC,[4],50 µg/mL
"CC(NNC1C2CC3CC(C2)CC1C3)C(=O)O (stereo not drawn) [Example 38, α-[2-(2'-Adamantyl)hydrazino]propionic acid hydrochloride]",Leishmania amastigote activity score,L. tropica amastigotes; 100 μg,++ (clearance of all parasites in 48 hours)
same,Leishmania promastigote activity score,L. tropica promastigotes; 10 μg,± (No viable parasites after 96 hours)
same,Leishmania promastigote activity score,L. tropica promastigotes; 100 μg,++ (No viable parasites after 48 hours)
same,activity against Leishmania,Leishmania,active
"CC(C)NNC1C2CC3CC(C2)CC1C3 (centres unmarked) [Example 51, 1-(2'-Adamantyl)-2-isopropylhydrazine hydrochloride]",Leishmania amastigote activity score,L. tropica amastigotes; 10 μg,± (Partial clearance of parasites in 72 hours or more)
same,Leishmania amastigote activity score,L. tropica amastigotes; 100 μg,++ (clearance of all parasites in 48 hours)
same,Trypanosoma in vitro activity score,Trypanosoma; 100 μg,+++ (No viable parasites after 24 hours)
same,activity against Trypanosoma,Trypanosoma,active
same,activity against Leishmania,Leishmania,active
"c1ccc(NNC2C3CC4CC(C3)CC2C4)nc1 (centres unmarked) [Example 8, 1-(2'-Adamantyl)-2-(2""-pyridyl)hydrazine hydrochloride]",Leishmania amastigote activity score,L. tropica amastigotes; 10 μg,+ (clearance of all parasites in 72 hours)
same,Leishmania amastigote activity score,L. tropica amastigotes; 100 μg,+++ (clearance of all parasites in 24 hours)
same,Trypanosoma in vitro activity score,Trypanosoma; 10 μg,+ (No viable parasites after 72 hours)
same,Trypanosoma in vitro activity score,Trypanosoma; 100 μg,+++ (No viable parasites after 24 hours)
same,activity against Trypanosoma,Trypanosoma,active
same,activity against Leishmania,Leishmania,active
"c1ccc(NNC2C3CC4CC(C3)CC2C4)cc1 (centres unmarked) [Example 3, 1-(2'-Adamantyl)-2-phenylhydrazine hydrochloride]",MIC,[1]; Korthof + 8% serum,100 µg/mL
same,MIC,[1]; minimal medium,6.25 µg/mL
same,anti leptospiral activity,[1],active
same,Trypanosoma in vitro activity score,Trypanosoma; 10 μg,+ (No viable parasites after 72 hours)
same,Trypanosoma in vitro activity score,Trypanosoma; 100 μg,+++ (No viable parasites after 24 hours)
same,activity against Trypanosoma,Trypanosoma,active
"CNN(C)C1C2CC3CC(C2)CC1C3 (centres unmarked) [Example 49, 1-(2'-Adamantyl)-1,2-dimethylhydrazine hydrochloride]",Trypanosoma in vitro activity score,Trypanosoma; 100 μg,++ (No viable parasites after 48 hours)
same,activity against Trypanosoma,Trypanosoma,active
same,inhibition at 50 µg/mL,"HSV-1 (Herpes Simplex); Human alphaherpesvirus 1, 50 μg/ml, BSC-1 cells, 10 PFU/cell, read-out: % Inhibition",60%
same,inhibition at 100 µg/mL,"HSV-1 (Herpes Simplex); Human alphaherpesvirus 1, 100 μg/ml, BSC-1 cells, 10 PFU/cell",92%
same,inhibition at 200 µg/mL,"HSV-1 (Herpes Simplex); Human alphaherpesvirus 1, 200 μg/ml, BSC-1 cells, 10 PFU/cell",99.9%
same,MNTC,[4],100 µg/mL
